Measurements taken from patent US8158621B2, “Methods of treating or preventing autoimmune diseases with 2,4-pyrimidinediamine compounds” (Rigel Pharmaceuticals, Inc., priority 2002, dated 2012).

Legend:
[1] = tested on: cultured human mast cells (CHMC); assay: CHMC low cell density ionomycin activation: tryptase assay; format: cell-based; conditions: Low Density; read-out: CHMC Ionomycin Tryptase
[2] = tested on: bone marrow derived mast cells (BMMC); assay: BMMC high cell density IgE activation: TNFalpha; format: cell-based, mouse; conditions: High Density section of TABLE 1, BMMC, anti-IgE activation, TNFalpha; read-out: BMMC anti-IgE TNF-alpha IC50
Method: (§1) After sensitizing, cells are counted, pelleted (1000 rpm, 5-10 minutes), and resuspended at 1-3×10^6 cells/ml in MT buffer. Add 100 ul of cell suspension to each well and 100 ul of compound dilutions. The final vehicle concentration is 0.5% DMSO. Incubate at 37° C. (5% CO2) for 1 hour. After 1 hour of compound treatment, stimulate cells with 6× stimulus (60 ng/ml DNP-BSA). Mix wells with the cells and allow plates to incubate at 37° C. (5% CO2) for one hour. After 1 hour incubation, pellet cells (10 minutes, 1000 RPM) and collect 200 ul per well of the supernatant, being careful not to disturb pellet, and transfer to a clean tube or 96-well plate. Place the supernatant plate on ice. During the 4-5 hour step (see next) perform the hexosiminidase assay. Resuspend cell pellet in 240 ul WEI-conditioned media containing 0.5% DMSO and corresponding concentration of compound. Incubate BMMC cells for 4-5 hours at 37° C. (5% CO2). After incubation, pellet cells (1000 RPM, 10 minutes) and collect 225 ul per well and place in −80° C. until ready to perform ELISAS. ELISAS are performed on appropriately diluted samples (determined empirically for each donor cell population so that the sample measurement falls within the standard curve) following the supplier's instructions.

[3] = tested on: bone marrow derived mast cells (BMMC); assay: BMMC high cell density IgE activation: IL-6; format: cell-based, mouse; conditions: High Density section of TABLE 1, BMMC, anti-IgE activation, IL-6; read-out: BMMC anti-IgE IL-6 IC50
Method: as §1

[4] = tested on: bone marrow derived mast cells (BMMC); assay: BMMC high cell density IgE activation: LTC4; format: cell-based, mouse; conditions: High Density section of TABLE 1, BMMC, anti-IgE activation, LTC4; read-out: BMMC anti-IgE LTC4 IC50
Method: as §1

[5] = tested on: Human Jurkat T-cells (clone N); assay: Jurkat T-cell activation (anti-TCR, CD69 upregulation); format: cell-based
Method in brief: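 Readout is CD69 upregulation by flow cytometry (anti-CD69-APC, 20 min at 4 °C) after 20 h anti-TCR (C305, 500 ng/ml) stimulation at 37 °C.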

[6] = tested on: bone marrow derived mast cells (BMMC); assay: BMMC high cell density IgE activation: hexosaminidase; format: cell-based, mouse
[7] = tested on: bone marrow derived mast cells (BMMC); assay: BMMC high cell density IgE activation: histamine; format: cell-based, mouse; conditions: High Density section of TABLE 1, BMMC, anti-IgE activation, histamine; read-out: BMMC anti-IgE histamine IC50
Method: as §1

Jurkat cells [8] = assay: Jurkat toxicity, Cell Titer Glo assay; format: cell-based, human
Method: Seed 50 μl cells (1×10^6/ml) into each well containing 50 μl compound. […] Shake plates for 1 minute to mix cells and compound. Incubate plates at 37° C. […] Next day, harvest 50 μl cells from each well, add to 50 μl Cell Titer Glo reagent ([…]). Shake plates for 1 minute. Read on luminometer.

[9] = tested on: cultured human mast cells (CHMC); assay: CHMC low cell density IgE activation: tryptase assay; format: cell-based; conditions: Low Density; read-out: CHMC anti-IgE Tryptase
Method in brief: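 Read-out: tryptase released into supernatant, measured by substrate turnover over 30 min at RT. Low-density CHMC (1000-1500 cells/well, per donor degranulation activity) in MT buffer, 1 hr at 37° C, then anti-IgE challenge 30 min at 37° C.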

[10] = tested on: basophil cells (human peripheral blood); assay: Basophil anti-IgE activation: histamine release assay; format: cell-based; conditions: basophils, anti-IgE activation, histamine release; read-out: Basophils anti-IgE Histamine IC50
Method: The basophil activation assay was carried out using whole human peripheral blood from donors allergic to dust mites with the majority of the red blood cells removed by dextran sedimentation. Human peripheral blood was mixed 1:1 with 3% dextran T500 and RBCs were allowed to settle for 20-25min. The upper fraction was diluted with 3 volumes of D-PBS and cells were spun down for 10 min at 1500 rpm, RT. Supernatant was aspirated and cells were washed in an equal volume MT-buffer. Finally, cells were resuspended in MT-buffer containing 0.5% DMSO in the original blood volume. 80 uL cells were mixed with 20 uL compound in the presence of 0.5% DMSO, in triplicate, in a V-bottom 96-well tissue culture plate. A dose range of 8 compound concentrations was tested resulting in a 10-point dose response curve including maximum (stimulated) and minimum (unstimulated) response. […] The cells were stimulated for 30 minutes at 37° C., 5% CO2. The plate was spun for 10 min at 1500 rpm at room temperature and 80 uL the supernatant was harvested for histamine content analysis using the histamine ELISA kit supplied by Immunotech. The ELISA was performed according to supplier's instructions.

[11] = tested on: basophil cells (human peripheral blood); assay: Basophil ionomycin activation: histamine release assay; format: cell-based; conditions: basophils, ionomycin activation, histamine release; read-out: Basophils Ionomycin Histamine IC50
Method in brief: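 Dextran-sedimented leukocytes from peripheral blood of dust-mite-allergic human donors were incubated with compound (8 concentrations, 0.5% DMSO, triplicate) and then stimulated with 2 μM ionomycin stock (20 μl added) for 30 min at 37° C. Histamine released into the supernatant was measured by ELISA.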

[12] = tested on: cultured human mast cells (CHMC); assay: CHMC low cell density IgE activation: hexosaminidase assay; format: cell-based; conditions: anti-IgE activation, hexosaminidase release, read-out: CHMC anti-IgE Hexos. IC50
Method: (§2) Inhibition of degranulation was measured at both low and high cell density by quantifying the release of the granule specific factors tryptase, histamine and hexosaminidase. Inhibition of release and/or synthesis of lipid mediators was assessed by measuring the release of leukotriene LTC4 and inhibition of release and/or synthesis of cytokines was monitored by quantifying TNF-α, IL-6 and IL-13. Tryptase and hexosaminidase were quantified using fluorogenic substrates as described in their respective examples. Histamine, TNFα, IL-6, IL-13 and LTC4 were quantified using the following commercial ELISA kits: histamine (Immunotech #2015, Beckman Coulter), TNFα (Biosource #KHC3011), IL-6 (Biosource #KMC0061), IL-13 (Biosource #KHC0132) and LTC4 (Cayman Chemical #520211). The protocols of the various assays are provided below.

[13] = tested on: bone marrow derived mast cells (BMMC); assay: BMMC high cell density ionomycin activation: hexosaminidase; format: cell-based, mouse; conditions: read-out: BMMC Ionomycin Hexos.
Method: Add 50 uL of BMMC cell supernatant (see above) to the hexoseaminidase substrate, place at 37° C. for 30 minutes and read the plate at 5, 10, 15, and 30 minutes on a spectrophotometer.

[14] = tested on: cultured human mast cells (CHMC); assay: CHMC low cell density IgE activation: LTC4 assay; format: cell-based; conditions: anti-IgE activation, LTC4 release
Method in brief: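 Degranulation measured after 30 min anti-IgE challenge at 37° C of CHMC plated at 1000-1500 cells/well following 1 h preincubation. Readouts: LTC4 by ELISA on donor-specific diluted supernatants, and tryptase activity from a 30 min room-temperature substrate reaction.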

[15] = tested on: cultured human mast cells (CHMC); assay: CHMC low cell density ionomycin activation: hexosaminidase assay; format: cell-based; conditions: hexosaminidase release, read-out: CHMC Ionomycin Hexos. IC50
Method: as §2

Jurkat cells [16] = assay: Jurkat (T-cell) toxicity, light scatter; format: cell-based, human; conditions: read-out: Toxicity Jurkat Light Scat.
Method: Dilute Jurkat cells to 2×10^5 cells/ml in complete RPMI (10% heat-inactivated fetal bovine serum) media and incubate at 37° C., 5% CO2 for 18 hours. Add 65 ul cells at 7.7×10^5 cells/ml to a 96-well V-bottom plate (TC-treated, Costar) containing 65 ul 2× compound (final vehicle concentration is 0.5% DMSO, 1.5% MeOH). Mix, incubate plates for 18-24 hr at 37° C., 5% CO2. Toxicity was assessed by flow cytometric analysis of cellular light scatter

B-cell line BJAB = assay: BJAB (B-cell) toxicity, light scatter; format: cell-based; conditions: read-out: Toxicity BJAB Light Scat.
Method: The B-cell line BJAB was cultured in log phase in RPMI1640+10% heat-inactivated fetal bovine serum, 1× L-glutamine, 1× penicillin, 1× […] and 1× beta-mercaptoethanol at 37° C., 5% CO2. First, BJABs were harvested, spun and resuspended in culture medium to a concentration of 7.7×10^5 cells/mL. 65 uL cells were mixed with 65 uL compound, in duplicate and in the presence of 0.1% DMSO in a V-bottomed 96-well tissue culture plate. Cells were incubated with compound at various dilutions at 37° C., 5% CO2. Toxicity was assessed by flow cytometric analysis of cellular light scatter.

[17] = High Density section of TABLE 1, BMMC, anti-IgE activation, hexosaminidase, read-out: BMMC anti-IgE hexos. IC50

| IC50 [1] [nM] | IC50 [2] [nM] | IC50 [3] [nM] | IC50 [4] [nM] | IC50 [5] [nM] | IC50 [6, 17] [nM] | IC50 [7] [nM] | IC50 [9] [nM] | IC50 [10] [nM] | IC50 [11] [nM] | IC50 [12] [nM] | IC50 [13] [nM] | IC50 [14] [nM] | IC50 [15] [nM] | IC50 ([6]; High Density, read-out: BMMC anti-IgE hexos) [nM] | SMILES | IC50 (Jurkat cells [8]) [nM] | IC50 (Jurkat cells [16]) [nM] | IC50 (B-cell line BJAB) [nM] |
| --- | --- | --- | --- | --- | --- | --- | --- | --- | --- | --- | --- | --- | --- | --- | --- | --- | --- | --- |
| > 10000 | < 220 | < 220 | 288 | 1080 | < 220 | < 220 | 164 | – | – | – | – | – | – | – | Nc1cccc(Nc2ncc(F)c(Nc3ccc4c(c3)OCCO4)n2)c1 [Compound R950207] | > 4330 | – | – |
| > 10000 | 131 | 41 | 547 | 1650 | 104 | 85 | 127 | – | – | – | – | – | – | – | OCCOc1cccc(Nc2ncc(F)c(Nc3ccc4c(c3)OCCO4)n2)c1 [Compound R935154] | > 4330 | – | – |
| – | – | – | – | 10400 | – | – | – | 950 | > 10000 | 787 | > 10000 | 760 | 6400 | 900 | CCOc1ccc(Nc2nc(Nc3ccc(OC)c(OC)c3)ncc2F)cc1 [Compound R926108] | – | > 10000 | > 10000 |
| > 10000 | 220 | < 220 | 433 | 1840 | < 220 | < 220 | 149 | – | – | – | – | – | – | – | CC(C)Oc1ccc(Nc2nc(Nc3cccc(OCCO)c3)ncc2F)cc1 [Compound R935156] | 4050 | – | – |
